Patent US20250114345A1, “COMPOUNDS AND COMPOSITIONS AS CBP/P300 DEGRADERS AND USES THEREOF” (Oncopia Therapeutics, Inc. d/b/a/ SK Life Science Labs, priority 2023, published 2025)

Biological target: T1, p300 (Homo sapiens, UniProt Q09472)
T1 construct: host or cells: A549 P300 HiBit cells
Assay: P300 degradation, HiBit technology in A549 P300 HiBit cells (2 h)
Format: cell-based
Conditions: 2 hrs post treatment; for Dmax: A549, A549 P300 HiBit cells; for DC50: A549 P300 HiBit cells
How it was run: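 Luminescence after lytic HiBiT detection (10 min, room temperature) gave degradation potency and Dmax. Before that, knock-in A549 cells grown overnight in F-12K/10% HI-FBS were exposed to serially diluted compound at 37 °C, 5% CO2 for the assay time stated.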

T1 sequence (Q09472 whole entry): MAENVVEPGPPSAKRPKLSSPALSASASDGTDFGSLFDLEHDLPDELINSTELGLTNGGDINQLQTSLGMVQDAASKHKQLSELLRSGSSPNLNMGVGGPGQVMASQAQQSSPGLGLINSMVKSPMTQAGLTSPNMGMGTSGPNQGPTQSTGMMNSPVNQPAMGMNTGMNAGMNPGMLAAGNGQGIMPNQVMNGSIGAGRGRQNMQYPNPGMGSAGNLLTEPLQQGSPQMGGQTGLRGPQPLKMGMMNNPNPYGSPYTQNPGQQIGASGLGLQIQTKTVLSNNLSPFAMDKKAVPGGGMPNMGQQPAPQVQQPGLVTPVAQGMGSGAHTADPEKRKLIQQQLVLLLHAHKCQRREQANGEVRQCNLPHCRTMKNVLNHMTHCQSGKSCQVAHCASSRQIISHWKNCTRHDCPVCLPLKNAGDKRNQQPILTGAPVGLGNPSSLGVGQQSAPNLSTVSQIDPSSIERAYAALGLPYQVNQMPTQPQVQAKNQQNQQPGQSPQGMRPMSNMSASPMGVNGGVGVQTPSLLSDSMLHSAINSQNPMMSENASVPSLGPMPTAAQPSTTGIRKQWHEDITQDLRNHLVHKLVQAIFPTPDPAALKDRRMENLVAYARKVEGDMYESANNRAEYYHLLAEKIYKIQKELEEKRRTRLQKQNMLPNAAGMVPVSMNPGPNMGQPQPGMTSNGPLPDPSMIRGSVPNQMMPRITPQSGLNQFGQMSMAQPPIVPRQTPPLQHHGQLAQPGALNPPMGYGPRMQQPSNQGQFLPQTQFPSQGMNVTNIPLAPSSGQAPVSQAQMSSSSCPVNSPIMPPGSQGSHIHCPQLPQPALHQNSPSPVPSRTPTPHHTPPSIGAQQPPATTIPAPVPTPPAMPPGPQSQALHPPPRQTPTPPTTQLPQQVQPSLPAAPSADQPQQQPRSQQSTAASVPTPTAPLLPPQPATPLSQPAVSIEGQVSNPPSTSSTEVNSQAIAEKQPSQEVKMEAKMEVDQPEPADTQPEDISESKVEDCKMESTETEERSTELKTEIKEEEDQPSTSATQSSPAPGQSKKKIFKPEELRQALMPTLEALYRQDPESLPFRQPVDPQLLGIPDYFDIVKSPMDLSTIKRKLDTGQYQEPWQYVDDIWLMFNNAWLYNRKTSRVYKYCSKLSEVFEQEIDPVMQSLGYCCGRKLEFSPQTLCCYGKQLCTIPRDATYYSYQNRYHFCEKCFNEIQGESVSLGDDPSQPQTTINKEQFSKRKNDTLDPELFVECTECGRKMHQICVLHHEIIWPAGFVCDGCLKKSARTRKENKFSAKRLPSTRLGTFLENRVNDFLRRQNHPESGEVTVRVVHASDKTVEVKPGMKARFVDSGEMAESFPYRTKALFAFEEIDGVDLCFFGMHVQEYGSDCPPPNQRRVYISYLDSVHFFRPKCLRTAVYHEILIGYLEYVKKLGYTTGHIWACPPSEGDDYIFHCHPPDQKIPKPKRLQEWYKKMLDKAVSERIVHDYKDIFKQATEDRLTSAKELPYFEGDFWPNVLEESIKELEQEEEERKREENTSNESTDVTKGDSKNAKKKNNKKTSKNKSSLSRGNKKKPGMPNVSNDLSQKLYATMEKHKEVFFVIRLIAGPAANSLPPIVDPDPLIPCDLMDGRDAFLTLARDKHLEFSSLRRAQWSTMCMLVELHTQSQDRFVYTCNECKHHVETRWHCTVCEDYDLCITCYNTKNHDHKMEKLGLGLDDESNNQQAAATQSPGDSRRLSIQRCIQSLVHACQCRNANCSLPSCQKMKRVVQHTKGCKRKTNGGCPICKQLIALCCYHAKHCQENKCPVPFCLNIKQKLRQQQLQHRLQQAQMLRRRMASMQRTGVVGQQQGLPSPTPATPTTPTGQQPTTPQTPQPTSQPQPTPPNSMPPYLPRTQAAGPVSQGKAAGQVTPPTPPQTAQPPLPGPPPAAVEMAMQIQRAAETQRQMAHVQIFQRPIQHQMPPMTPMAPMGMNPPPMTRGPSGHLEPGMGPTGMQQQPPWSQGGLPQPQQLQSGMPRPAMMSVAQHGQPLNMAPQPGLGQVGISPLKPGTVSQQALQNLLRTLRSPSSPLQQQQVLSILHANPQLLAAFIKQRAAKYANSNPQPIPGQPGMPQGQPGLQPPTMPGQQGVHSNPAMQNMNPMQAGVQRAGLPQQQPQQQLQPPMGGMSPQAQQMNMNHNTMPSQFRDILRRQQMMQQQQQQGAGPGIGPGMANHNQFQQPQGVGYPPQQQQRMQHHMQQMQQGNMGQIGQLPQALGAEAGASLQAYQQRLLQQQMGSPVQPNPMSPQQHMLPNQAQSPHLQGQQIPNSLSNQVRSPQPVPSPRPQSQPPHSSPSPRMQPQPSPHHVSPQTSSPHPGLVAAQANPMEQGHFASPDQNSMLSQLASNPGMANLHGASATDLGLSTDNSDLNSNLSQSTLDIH

SMILES	Dmax [%]	DC50 [nM]
Cc1cc2c(N3CCCc4nc(-c5ccc(C(=O)NCC#Cc6cc7c(C8CCC(=O)NC8=O)cccc7o6)nc5)ncc43)cc(C3CCC(F)(F)CC3)nc2n(C)c1=O (centres unmarked) [Example B158, 5-(5-(2-(4,4-difluorocyclohexyl)-6,8-dimethyl-7-oxo-7,8-dihydro-1,8-naphthyridin-4-yl)-5,6,7,8-tetrahydropyrido[3,2-d]pyrimidin-2-yl)-N-(3-(4-(2,6-dioxopiperidin-3-yl)benzofuran-2-yl)prop-2-yn-1-yl)picolinamide]	> 80	10 to 99
Cc1cc(-c2cccc3cc(-c4ccc(C(=O)NCC#Cc5cc6c(C7CCC(=O)NC7=O)cccc6o5)nc4)ncc23)cc2c1n(C)c(=O)n2C (centres unmarked) [Example A183, N-(3-(4-(2,6-dioxo-piperidin-3-yl)benzofuran-2-yl)prop-2-yn-1-yl)-5-(8-(1,3,7-trimethyl-2-oxo-2,3-dihydro-1H-benzo[d]imidazol-5-yl)isoquinolin-3-yl)picolinamide]	> 80	< 1
Cc1cc(-c2ncc(N(C)c3cc(C4CCOCC4)c4c(c3)n(C)c(=O)n4C)cn2)cnc1C(=O)NCC#Cc1cc2c(C3CCC(=O)NC3=O)nccc2o1 (centres unmarked) [Example A168, 5-(5-((1,3-dimethyl-2-oxo-7-(tetrahydro-2H-pyran-4-yl)-2,3-dihydro-1H-benzo[d]imidazol-5-yl)(methyl)amino)pyrimidin-2-yl)-N-(3-(4-(2,6-dioxopiperidin-3-yl)furo[3,2-c]pyridin-2-yl)prop-2-yn-1-yl)-3-methylpicolinamide]	> 80	1 to 9.9
Cc1cc2cnn(C3CCC(=O)NC3=O)c2cc1C#CCNC(=O)c1ccc(-c2cc3cccc(-c4cc(C(C)C)c5c(c4)n(C)c(=O)n5C)c3cn2)cn1 (centres unmarked) [Example A8, N-(3-(1-(2,6-Dioxopiperidin-3-yl)-5-methyl-1H-indazol-6-yl)prop-2-yn-1-yl)-5-(8-(7-isopropyl-1,3-dimethyl-2-oxo-2,3-dihydro-1H-benzo[d]imidazol-5-yl)isoquinolin-3-yl)picolinamide]	60 to 79	10 to 99
Cc1cc2c(N3CCCc4nc(-c5cnc(C(=O)NCC#Cc6cc7c(C8CCC(=O)NC8=O)cccc7o6)c(Cl)c5)ncc43)cccc2n(C)c1=O (centres unmarked) [Example B36, 3-chloro-5-(5-(1,3-dimethyl-2-oxo-1,2-dihydroquinolin-5-yl)-5,6,7,8-tetrahydropyrido [3,2-d]pyrimidin-2-yl)-N-(3-(4-(2,6-dioxo-piperidin-3-yl)benzofuran-2-yl)prop-2-yn-1-yl)picolinamide]	> 80	1 to 9.9
Cn1c(=O)oc2cc(-c3cccc4cc(-c5ccc(C(=O)NCC#Cc6ccc7occ(C8CCC(=O)NC8=O)c7c6)nc5)ncc34)ccc21 (centres unmarked) [Example A120, N-(3-(3-(2,6-dioxo-piperidin-3-yl)benzofuran-5-yl)prop-2-yn-1-yl)-5-(8-(3-methyl-2-oxo-2,3-dihydrobenzo[d]oxazol-6-yl)isoquinolin-3-yl)picolinamide]	< 20	> 1000
CC(C)c1cc(-c2cccc3cc(-c4ccc(C(=O)NCC#Cc5cc(N(C)C)c6cnn(C7CCC(=O)NC7=O)c6c5)nc4)ncc23)cc2c1n(C)c(=O)n2C (centres unmarked) [Example A9, N-(3-(4-(Dimethylamino)-1-(2,6-dioxopiperidin-3-yl)-1H-indazol-6-yl)prop-2-yn-1-yl)-5-(8-(7-isopropyl-1,3-dimethyl-2-oxo-2,3-dihydro-1H-benzo[d]imidazol-5-yl)isoquinolin-3-yl)picolinamide]	60 to 79	10 to 99
Cc1cc(-c2ncc(Nc3cc(C4CCOCC4)c4c(c3)n(C)c(=O)n4C)cn2)cnc1C(=O)NCC#Cc1cc2c(C3CCC(=O)NC3=O)cccc2o1 (centres unmarked) [Example A236, 5-(5-((1,3-dimethyl-2-oxo-7-(tetrahydro-2H-pyran-4-yl)-2,3-dihydro-1H-benzo[d]imidazol-5-yl)amino)pyrimidin-2-yl)-N-(3-(4-(2,6-dioxopiperidin-3-yl)benzofuran-2-yl)prop-2-yn-1-yl)-3-methylpicolinamide]	40 to 59	10 to 99
Cc1nc(-c2cnc(N(C)c3cc(C4CCOCC4)c4c(c3)n(C)c(=O)n4C)cn2)cnc1C(=O)NCC#Cc1cc2c(C3CCC(=O)NC3=O)nccc2o1 (centres unmarked) [Example A200, 5′-((1,3-dimethyl-2-oxo-7-(tetrahydro-2H-pyran-4-yl)-2,3-dihydro-1H-benzo [d]imidazol-5-yl) (methyl)amino)-N-(3-(4-(2,6-dioxo-piperidin-3-yl)furo[3,2-c]pyridin-2-yl)prop-2-yn-1-yl)-6-methyl-[2,2′-bipyrazine]-5-carboxamide]	> 80	1 to 9.9
Cc1cc(-c2ccc(Nc3cc4c(c(C(C)C)n3)n(C)c(=O)n4C)cn2)cnc1C(=O)NCC#Cc1ccc2occ(C3CCC(=O)NC3=O)c2c1 (centres unmarked) [Example A56, N-(3-(3-(2,6-dioxopiperidin-3-yl)benzofuran-5-yl)prop-2-yn-1-yl)-5-((4-isopropyl-1,3-dimethyl-2-oxo-2,3-dihydro-1H-imidazo[4,5-c]pyridin-6-yl)amino)-5′-methyl-[2,3′-bipyridine]-6′-carboxamide]	< 20	> 1000
Cc1cc2c(N3CCOc4cc(-c5ccc(C(=O)NCC#Cc6ccc7occ(C8CCC(=O)NC8=O)c7c6)nc5)ccc43)cc(C3CCOCC3)cc2n(C)c1=O (centres unmarked) [Example B41, 5-(4-(1,3-dimethyl-2-oxo-7-(tetrahydro-2H-pyran-4-yl)-1,2-dihydroquinolin-5-yl)-3,4-dihydro-2H-benzo[b][1,4]oxazin-7-yl)-N-(3-(3-(2,6-dioxopiperidin-3-yl)benzofuran-5-yl)prop-2-yn-1-yl)picolinamide]	> 80	1 to 9.9
COc1nc(-c2cnc(C(=O)NCC#Cc3cc4c(C5CCC(=O)NC5=O)cccc4o3)c(C)c2)ncc1N(C)c1cc(C2CCOCC2)c2c(c1)n(C)c(=O)n2C (centres unmarked) [Example A167, 5-(5-((1,3-dimethyl-2-oxo-7-(tetrahydro-2H-pyran-4-yl)-2,3-dihydro-1H-benzo[d]imidazol-5-yl)(methyl)amino)-4-methoxypyrimidin-2-yl)-N-(3-(4-(2,6-dioxopiperidin-3-yl)benzofuran-2-yl)prop-2-yn-1-yl)-3-methylpicolinamide]	60 to 79	1 to 9.9
[2H]C([2H])([2H])N(c1cnc(-c2cnc(C(=O)NCC#Cc3ccc4occ(C5CCC(=O)NC5=O)c4c3)c(C)c2)nc1)c1cc(C(C)C)c2c(c1)n(C)c(=O)n2C (centres unmarked) [Example A65, N-(3-(3-(2,6-dioxopiperidin-3-yl)benzofuran-5-yl)prop-2-yn-1-yl)-5-(5-((7-isopropyl-1,3-dimethyl-2-oxo-2,3-dihydro-1H-benzo [d]imidazol-5-yl)(methyl-d3)amino)pyrimidin-2-yl)-3-methylpicolinamide]	> 80	1 to 9.9
Cc1cc(N2CCN(C)c3cc(-c4ccc(C(=O)NCC#Cc5cc6c(C7CCC(=O)NC7=O)cccc6o5)nc4)ncc32)cc2c1n(C)c(=O)n2C (centres unmarked) [Example A239, N-(3-(4-(2,6-dioxo-piperidin-3-yl)benzofuran-2-yl)prop-2-yn-1-yl)-5-(1-methyl-4-(1,3,7-trimethyl-2-oxo-2,3-dihydro-1H-benzo [d]imidazol-5-yl)-1,2,3,4-tetrahydro-pyrido[3,4-b]pyrazin-7-yl)picolinamide]	> 80	< 1
CC(C)c1cc(-c2cccc3cc(-c4ccc(C(=O)NCC#Cc5cc6c(C7CCC(=O)NC7=O)cn(C)c6cn5)nc4)ncc23)cc2c1n(C)c(=O)n2C (centres unmarked) [Example A232, N-(3-(3-(2,6-dioxo-piperidin-3-yl)-1-methyl-1H-pyrrolo [2,3-c]pyridin-5-yl)prop-2-yn-1-yl)-5-(8-(7-isopropyl-1,3-dimethyl-2-oxo-2,3-dihydro-1H-benzo[d]imidazol-5-yl)isoquinolin-3-yl)picolinamide]	40 to 59	10 to 99
Cc1cc(-c2ncc3c(n2)CCCN3c2cccc3c2cc(C)c(=O)n3C)cnc1C(=O)NCC#Cc1ccc2occ(C3CCC(=O)NC3=O)c2c1 (centres unmarked) [Example B45, 5-(5-(1,3-dimethyl-2-oxo-1,2-dihydroquinolin-5-yl)-5,6,7,8-tetrahydropyrido[3,2-d]pyrimidin-2-yl)-N-(3-(3-(2,6-dioxopiperidin-3-yl)benzofuran-5-yl)prop-2-yn-1-yl)-3-methylpicolinamide]	> 80	1 to 9.9
CCc1cc(S(=O)(=O)c2ccc(-c3cnc(C(=O)NCC#Cc4cccc(NC5CCC(=O)NC5=O)c4)c(C)c3)nc2)c2cc(C)c(=O)n(C)c2c1 (centres unmarked) [Example B10, N-(3-(3-((2,6-Dioxopiperidin-3-yl)amino)phenyl)prop-2-yn-1-yl)-5-((7-ethyl-1,3-dimethyl-2-oxo-1,2-dihydroquinolin-5-yl)sulfonyl)-5′-methyl-[2,3′-bipyridine]-6′-carboxamide]	< 20	> 1000
Cc1cc2c(N3CCCc4nc(-c5ccc(C(=O)NCC=C=Cc6ccc7occ(C8CCC(=O)NC8=O)c7c6)nc5)ncc43)cc(C3CCOCC3)cc2n(C)c1=O (centres unmarked) [Example B116, 5-(5-(1,3-dimethyl-2-oxo-7-(tetrahydro-2H-pyran-4-yl)-1,2-dihydroquinolin-5-yl)-5,6,7,8-tetrahydropyrido[3,2-d]pyrimidin-2-yl)-N-(4-(3-(2,6-dioxopiperidin-3-yl)benzofuran-5-yl)buta-2,3-dien-1-yl)picolinamide]	40 to 59	10 to 99
Cc1cc(N2CCCc3nc(-c4ccc(C(=O)NCC#Cc5cc6c(C7CCC(=O)NC7=O)cccc6o5)nc4)ncc32)c2cc(C)c(=O)n(C)c2n1 (centres unmarked) [Example B118, N-(3-(4-(2,6-dioxopiperidin-3-yl)benzofuran-2-yl)prop-2-yn-1-yl)-5-(5-(2,6,8-trimethyl-7-oxo-7,8-dihydro-1,8-naphthyridin-4-yl)-5,6,7,8-tetrahydropyrido[3,2-d]pyrimidin-2-yl) picolinamide]	> 80	1 to 9.9
